Molecular target: T1, TmMre11 (Thermotoga maritima Mre11 (1–324)) (Thermotoga maritima, UniProt Q9X1X0)
T1 sequence (Q9X1X0 1-324): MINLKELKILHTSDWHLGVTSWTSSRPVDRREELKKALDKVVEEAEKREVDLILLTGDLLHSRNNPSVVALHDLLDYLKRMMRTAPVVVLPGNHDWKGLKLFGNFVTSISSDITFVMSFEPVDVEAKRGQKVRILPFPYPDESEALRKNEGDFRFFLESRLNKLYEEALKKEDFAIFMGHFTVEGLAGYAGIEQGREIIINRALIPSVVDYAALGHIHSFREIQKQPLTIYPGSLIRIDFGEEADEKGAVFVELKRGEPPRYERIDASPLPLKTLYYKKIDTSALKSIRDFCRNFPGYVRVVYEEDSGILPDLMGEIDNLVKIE
Test: exonuclease assay
Type: biochemical
Conditions: conditions only in supplement

inhibition of exonuclease activity: Nuclease assays using TmMre11
SMILES: N=C1NC(=O)/C(=C/c2ccc(O)cc2)S1 [mirin]

Reference: PMC3909494 (Molecular cell, 2013)
